In ChEMBL document CHEMBL1201862, “PubChem BioAssay data set” (2004):
Activity calls are given as the source filed them.

What was measured:
[1] = blockers of HIV-1 ZM109 envelope-driven cell-cell fusion – HeLa effector, CEM target cells, luciferase, cherry-pick, dose response (AID 652058); type: functional, cell-based;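 note: luciferase signal from HIV-1 Env mediated cell-cell fusion of effector and target cells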
[2] = off-target signal loss in HeLa-CEM21 co-culture – HeLa F-luc CTL cells, cherry-picked, counter-screen for HIV-1 Env fusion inhibitor project, dose response (AID 652040); type: functional, cell-based;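 note: potency for signal decrease marking cytotoxic or nonspecific inhibition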
[3] = blockers of bursicon-stimulated LGR2 cAMP reporter – cell-based, HEK293, CRE-luciferase reporter, cherry pick, set 2, dose response (AID 743343); type: functional;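 note: transfected cells were stimulated with diluted bursicon conditioned medium after compound addition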
[4] = toxicity toward HepG2 liver cells – cell-based, plate reader, cherry-pick, antagonist series, cytotoxicity control, dose response (AID 743416); type: functional
[5] = blockade of melanocortin 4 receptor signaling – cell-based, plate reader, cherry pick, counter-screen for LGR2 antagonist project, dose response (AID 743444); type: functional;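 note: transfected HEK 293 cells stimulated with alpha-MSH peptide; potency of inhibitors of the alpha-MSH evoked signal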
[6] = A549 cell cytotoxicity, dose response, cytotoxicity control, plate reader, cherry-pick, antagonist series (AID 743412); type: functional, cell-based
[7] = HEK-293T viability loss, compound-treated – cell-based, uHTS hits, cytotoxicity control for B/T-cell NF-kB inhibitor project, dose response (AID 489019); type: functional;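 note: IC50 reflects cytotoxicity as loss of cell viability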
[8] = HIV-1 AD8 envelope cell-cell fusion blockers – cherry-pick, dose response (AID 652062); type: functional, cell-based;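 note: luciferase signal from cell-cell fusion driven by HIV-1 clade B AD8 Env; potency is for inhibitors of fusion seen as a drop in luminescence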
Jurkat = assay: blockers of NF-kB activation in T cells – Jurkat, luciferase reporter, luminescence, B- and T-cell, dose response (AID 489004); type: functional, cell-based; settings: Homo sapiens;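 note: NF-kB luciferase reporter Jurkat cells stimulated with PMA plus ionomycin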
Paired box protein Pax-8 = Paired box protein Pax-8 (Homo sapiens, UniProt Q06710); assay: PAX8 transcriptional activity inhibition in RMG-I – RMG-I cells, luciferase, cherry-pick, dose response (AID 687027); type: functional, cell-based;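 note: luciferase reporter driven by Pax8 target thyroperoxidase promoter measured by SteadyGlo luminescence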
[9] = blockers of HIV-1 envelope-mediated cell-cell fusion – cherry-pick, dose response (AID 652057); type: functional, cell-based
[10] = target: T1, Microphthalmia-associated transcription factor (Homo sapiens, UniProt O75030); assay: reducers of TRPM1 reporter luminescence, concentration series – cell-based, SK-MEL-5, cherry-picked, set 3, MITF inhibitor project, dose response (AID 493073); type: functional;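 note: SK-MEL-5 melanoma cells with luciferase driven by the MITF target TRPM1 promoter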
T1 sequence (O75030 whole entry): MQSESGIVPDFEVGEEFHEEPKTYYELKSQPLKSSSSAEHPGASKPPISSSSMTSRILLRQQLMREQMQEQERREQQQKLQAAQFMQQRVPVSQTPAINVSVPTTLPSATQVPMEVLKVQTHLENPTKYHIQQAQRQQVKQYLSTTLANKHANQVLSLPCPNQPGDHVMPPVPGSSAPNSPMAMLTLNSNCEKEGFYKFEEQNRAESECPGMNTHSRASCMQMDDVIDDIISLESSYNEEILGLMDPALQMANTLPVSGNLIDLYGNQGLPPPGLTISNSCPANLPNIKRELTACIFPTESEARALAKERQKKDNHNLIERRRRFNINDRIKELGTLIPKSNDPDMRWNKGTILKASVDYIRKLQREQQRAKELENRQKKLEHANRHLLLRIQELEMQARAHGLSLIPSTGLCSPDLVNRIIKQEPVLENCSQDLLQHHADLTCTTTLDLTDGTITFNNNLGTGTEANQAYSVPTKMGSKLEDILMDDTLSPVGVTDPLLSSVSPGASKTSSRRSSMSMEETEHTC

A-375 [11] = assay: MITF: Counter assay: A375 proliferation Measured in Cell-Based System Using Plate Reader - 2084-03_Inhibitor_Dose_DryPowder_Activity. [Related pubchem assays (depositor defined):AID488944]; type: functional; settings: Homo sapiens
A-375 [12] = assay: proliferation inhibition in MITF-low A375 cells – cell-based, cherry-pick samples, set 2, counter-screen for MITF modulator project, dose response (AID 540335); type: functional; settings: Homo sapiens
cells = type: functional
[13] = THP-1 cell cytotoxicity, dose response, cytotoxicity control for non-replicating M. tuberculosis project (AID 489025); type: functional
[14] = target: Heat shock protein HSP 90-alpha (Homo sapiens, UniProt P07900); type: functional, organism-based
[15] = Vero E6 cell cytotoxicity, dose response, cytotoxicity control for non-replicating M. tuberculosis project, secondary assay (AID 492998); type: functional, VeroE6; settings: Vero C1008
[16] = target: T2, Alkaline phosphatase, tissue-nonspecific isozyme (Homo sapiens, UniProt P05186); assay: TNAP enzyme inhibition by screening hits, dose response, selectivity assay for mouse IAP inhibitor project, biochemical, human TNAP, uHTS hits (AID 488906); type: functional
T2 sequence (P05186 whole entry): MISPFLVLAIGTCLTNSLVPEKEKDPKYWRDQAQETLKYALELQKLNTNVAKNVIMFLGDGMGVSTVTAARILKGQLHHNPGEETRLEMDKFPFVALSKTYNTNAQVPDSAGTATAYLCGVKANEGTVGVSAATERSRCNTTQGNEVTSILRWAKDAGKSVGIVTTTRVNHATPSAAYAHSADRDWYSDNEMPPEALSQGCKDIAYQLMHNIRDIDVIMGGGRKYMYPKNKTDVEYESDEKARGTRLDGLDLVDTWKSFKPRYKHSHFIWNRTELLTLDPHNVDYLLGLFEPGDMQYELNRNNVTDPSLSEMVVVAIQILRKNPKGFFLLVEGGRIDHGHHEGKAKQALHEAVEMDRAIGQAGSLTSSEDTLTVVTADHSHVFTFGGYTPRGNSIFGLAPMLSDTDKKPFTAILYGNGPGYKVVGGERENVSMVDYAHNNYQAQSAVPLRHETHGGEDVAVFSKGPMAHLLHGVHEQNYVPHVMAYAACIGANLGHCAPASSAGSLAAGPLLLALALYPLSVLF

[17] = target: Intestinal-type alkaline phosphatase (Mus musculus, UniProt P24822); assay: PubChem AID 488785; type: functional
[18] = target: Intestinal-type alkaline phosphatase (Homo sapiens, UniProt P09923); assay: inhibition of human intestinal alkaline phosphatase – biochemical, dose response (AID 488876); type: functional
[19] = microbe, parasite or virus in culture; type: functional; settings: Mycobacterium tuberculosis
[20] = viability of PTEN-deleted HCT116 cells – cell-based, HCT116 PTEN knockout, dose response (AID 1047); type: functional;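 note: HCT116 colon tumor cells with PTEN knocked out; cells exposed to compound for 60 hours before readout; potency for loss of cell viability measured by luminescence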
[21] = loss of viability in HepG2 cells – cell-based, CellTiter-Glo, cherry-picked, cytotoxicity control for Shn3 inhibitor project, dose response (AID 624134); type: functional
[22] = decrease of insulin promoter-GFP reporter – imaging, high-content screening, mouse beta cells (AID 1628); type: functional; settings: MIN6
[23] = reduction of Shn3 3'UTR-driven luciferase in osteoblasts – cell-based, Clone20 osteoblasts, firefly luciferase, cherry-picked, dose response (AID 624132); type: functional;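 note: firefly luciferase luminescence from reporter carrying the Shn3 3'UTR in osteoblasts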
[24] = NIH3T3 cell viability loss – ATP luminescence, mouse fibroblasts, counter-screen, dose response (AID 2010); type: functional, cell-based;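 note: cells exposed to compound for about 90 hours before reading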
[25] = non-specific 3'UTR reporter inhibition in Clone20-Shn3RL – cell-based, Renilla luciferase, cherry-picked, counter-screen for Shn3 inhibitor project, dose response (AID 624133); type: functional
[26] = MIN6 cell viability loss – mouse insulinoma, cytotoxicity control, dose response (AID 2122); type: functional;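 note: confirmatory high-throughput counterscreen run to flag cytotoxic compounds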
[27] = Trypanosoma cruzi growth suppression in host cells – NIH3T3 host cells, beta-gal luminescence, confirmation (AID 2044); type: functional, cell-based;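 note: intracellular parasites grown in NIH/3T3 mouse fibroblasts as host cells; luminescent beta-galactosidase reporter signal from transgenic T. cruzi replicating inside host cells; inhibitors lower the luminescence signal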
[28] = viability of HCT116 lacking mutant beta-catenin – cell-based, human colon tumor, dose response (AID 1045); type: functional;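 note: HCT116 colon tumor cells with beta catenin knocked out; cells exposed to compound for 60 hours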
HEK293 [29] = assay: cells; settings: Homo sapiens
[30] = viability loss in CEM21 cells – cell-based, CellTiter-Glo luminescence, cherry-picked, cytotoxicity control for viral fusion inhibitor project, dose response (AID 652042); type: functional;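 note: potency for signal decrease meaning cytotoxicity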
HEK293 [31] = assay: cells; settings: Homo sapiens; remark: listed apart in the source
[32] = NIH-3T3 fibroblast cytotoxicity, dose response, cytotoxicity control, cell-based, fluorescence, Alamar Blue, secondary assay (AID 2327); type: functional;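 note: NIH-3T3 mouse fibroblasts cultured with fluconazole at 8 µg/mL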
[33] = fluconazole-exposed Candida albicans growth modulators – fluorescence, retest, confirmation (AID 2467); type: functional, cell-based
[34] = target: T3, Serine/threonine-protein phosphatase (Candida dubliniensis (strain CD36 / CBS 7987 / NCPF 3949 / NRRLY-17841) (Yeast), UniProt B9W6M3); assay: blockers of CaCl2-induced CDRE-lacZ signaling – S. cerevisiae, luminescence, secondary, dose response (AID 2388); type: functional, cell-based;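 note: yeast reporter cells carrying a calcineurin-responsive lacZ construct stimulated with calcium chloride; luminescent beta-galactosidase reporter signal in whole cells rather than isolated phosphatase activity; potency for inhibition where a drop in reporter signal means calcineurin blockade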
T3 sequence (B9W6M3 whole entry): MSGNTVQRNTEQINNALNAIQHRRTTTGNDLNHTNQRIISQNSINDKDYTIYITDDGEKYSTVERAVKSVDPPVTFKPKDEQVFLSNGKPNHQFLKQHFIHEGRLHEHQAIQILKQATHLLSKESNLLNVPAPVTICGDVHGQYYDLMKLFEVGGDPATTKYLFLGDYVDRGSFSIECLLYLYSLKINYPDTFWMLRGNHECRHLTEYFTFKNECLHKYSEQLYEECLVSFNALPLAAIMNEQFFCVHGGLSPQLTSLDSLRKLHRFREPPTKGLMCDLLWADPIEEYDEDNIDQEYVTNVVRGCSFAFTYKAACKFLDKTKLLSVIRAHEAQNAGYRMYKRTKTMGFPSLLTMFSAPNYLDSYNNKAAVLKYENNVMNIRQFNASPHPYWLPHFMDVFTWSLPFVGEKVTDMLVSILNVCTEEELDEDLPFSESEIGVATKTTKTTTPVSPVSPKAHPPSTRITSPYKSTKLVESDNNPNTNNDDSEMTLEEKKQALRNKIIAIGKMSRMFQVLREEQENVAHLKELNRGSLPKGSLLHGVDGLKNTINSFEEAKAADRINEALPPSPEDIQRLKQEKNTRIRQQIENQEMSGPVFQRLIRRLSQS

[35] = target: ATP-dependent molecular chaperone HSP82 (Candida albicans (strain WO-1) (Yeast), UniProt C4YTQ8); assay: steroid-induced GRE reporter decrease in yeast – S. cerevisiae, luminescence, Hsp90 inhibitor project, dose response (AID 2400); type: functional, cell-based;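 note: beta-galactosidase luminescence from glucocorticoid response element reporter as proxy for Hsp90 function; inhibitor potency where signal loss means Hsp90 inhibition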
[36] = luciferase reporter signal suppression in cells – H4 neuroglioma cells, luminescence, dose response (AID 1990); type: functional, cell-based
[37] = alpha-synuclein stem-loop luciferase translation blockers – H4 neuroglioma cells, luminescence, confirmation (AID 1988); type: functional, cell-based
[38] = Luminescence Cell-Based Dose Response HTS to Identify Inhibitors of 5'UTR Stem-Loop Driven Prion Protein mRNA Translation in H4 Neuroglioblastoma Cells. [Related pubchem assays: 1827 (Project Summary), 1813 (Primary HTS)]; type: functional

Chain of ATP-dependent molecular chaperone HSP82 (C4YTQ8 whole entry): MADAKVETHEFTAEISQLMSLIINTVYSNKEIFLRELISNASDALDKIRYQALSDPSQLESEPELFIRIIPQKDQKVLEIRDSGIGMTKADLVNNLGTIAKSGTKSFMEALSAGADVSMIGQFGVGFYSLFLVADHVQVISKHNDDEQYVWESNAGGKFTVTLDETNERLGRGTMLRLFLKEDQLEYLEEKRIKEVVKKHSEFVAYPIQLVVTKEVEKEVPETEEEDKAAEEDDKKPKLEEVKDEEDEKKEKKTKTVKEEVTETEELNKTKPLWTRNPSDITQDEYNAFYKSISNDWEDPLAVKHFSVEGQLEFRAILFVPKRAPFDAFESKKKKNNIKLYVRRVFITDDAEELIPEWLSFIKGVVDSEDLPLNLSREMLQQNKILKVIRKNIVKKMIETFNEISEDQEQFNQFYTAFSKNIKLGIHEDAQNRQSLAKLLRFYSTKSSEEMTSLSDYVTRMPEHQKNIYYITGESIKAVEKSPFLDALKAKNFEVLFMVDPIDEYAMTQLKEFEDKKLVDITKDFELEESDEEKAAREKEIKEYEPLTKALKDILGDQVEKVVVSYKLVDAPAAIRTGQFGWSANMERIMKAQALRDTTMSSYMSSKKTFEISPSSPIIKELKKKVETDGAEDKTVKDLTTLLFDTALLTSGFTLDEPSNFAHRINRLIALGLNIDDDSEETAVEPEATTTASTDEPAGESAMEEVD
Chain of Paired box protein Pax-8 (Q06710 whole entry, the tested form may be a part): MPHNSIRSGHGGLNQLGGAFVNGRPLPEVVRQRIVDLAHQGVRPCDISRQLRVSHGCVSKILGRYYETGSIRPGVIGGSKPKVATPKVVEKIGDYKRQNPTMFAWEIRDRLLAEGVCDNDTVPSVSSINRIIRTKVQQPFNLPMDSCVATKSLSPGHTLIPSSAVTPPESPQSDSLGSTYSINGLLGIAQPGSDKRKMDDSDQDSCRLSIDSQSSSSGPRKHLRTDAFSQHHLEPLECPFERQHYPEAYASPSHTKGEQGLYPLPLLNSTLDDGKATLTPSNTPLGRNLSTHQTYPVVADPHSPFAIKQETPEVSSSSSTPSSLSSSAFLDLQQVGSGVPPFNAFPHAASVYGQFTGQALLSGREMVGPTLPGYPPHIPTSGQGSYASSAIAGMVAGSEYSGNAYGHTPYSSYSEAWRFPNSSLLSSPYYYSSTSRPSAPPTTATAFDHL
Chain of Intestinal-type alkaline phosphatase (Mus musculus, UniProt P24822) (P24822 whole entry): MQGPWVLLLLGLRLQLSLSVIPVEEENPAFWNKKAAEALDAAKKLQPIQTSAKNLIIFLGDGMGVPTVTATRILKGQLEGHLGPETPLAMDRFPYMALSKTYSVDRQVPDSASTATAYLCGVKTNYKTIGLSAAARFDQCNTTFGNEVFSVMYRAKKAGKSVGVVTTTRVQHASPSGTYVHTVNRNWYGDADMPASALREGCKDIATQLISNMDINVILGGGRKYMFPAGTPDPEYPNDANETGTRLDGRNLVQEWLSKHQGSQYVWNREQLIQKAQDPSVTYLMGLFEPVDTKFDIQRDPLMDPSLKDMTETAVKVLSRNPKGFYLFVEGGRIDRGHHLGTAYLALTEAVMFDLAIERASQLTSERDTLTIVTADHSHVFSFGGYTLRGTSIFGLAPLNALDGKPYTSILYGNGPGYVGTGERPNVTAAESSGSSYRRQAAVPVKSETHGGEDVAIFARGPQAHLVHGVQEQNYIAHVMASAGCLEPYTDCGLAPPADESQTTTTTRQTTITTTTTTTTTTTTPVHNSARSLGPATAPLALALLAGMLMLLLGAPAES
Chain of Intestinal-type alkaline phosphatase (Homo sapiens, UniProt P09923) (P09923 whole entry): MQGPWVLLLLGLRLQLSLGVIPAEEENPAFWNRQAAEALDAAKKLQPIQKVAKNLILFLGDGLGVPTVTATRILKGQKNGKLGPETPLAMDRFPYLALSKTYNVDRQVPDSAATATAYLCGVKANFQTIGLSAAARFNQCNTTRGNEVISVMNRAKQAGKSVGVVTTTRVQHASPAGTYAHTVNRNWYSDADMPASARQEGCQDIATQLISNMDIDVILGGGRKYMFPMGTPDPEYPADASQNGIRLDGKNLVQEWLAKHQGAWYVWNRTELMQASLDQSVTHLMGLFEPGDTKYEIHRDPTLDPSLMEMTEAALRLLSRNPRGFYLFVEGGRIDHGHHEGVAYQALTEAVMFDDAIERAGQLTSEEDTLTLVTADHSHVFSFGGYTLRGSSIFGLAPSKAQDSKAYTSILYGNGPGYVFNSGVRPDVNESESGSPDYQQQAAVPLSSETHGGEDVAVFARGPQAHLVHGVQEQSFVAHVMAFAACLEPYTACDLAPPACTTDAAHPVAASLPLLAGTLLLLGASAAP

COc1ccc(C(=O)CN2C(=O)c3ccccc3S2(=O)=O)cc1
AC50 [1]: 10.7 µM (active) | AC50 [2]: 2.16 µM (active) | AC50 [3]: 0.675 µM (active) | AC50 [4]: > 52 µM (inactive) | AC50 [5]: 0.691 µM (active) | AC50 [6]: > 52 µM (inactive) | IC50 [7]: > 80 µM (inactive) | AC50 [8]: 2.54 µM (active) | IC50 (Jurkat): 1.08 µM (active) | AC50 (Paired box protein Pax-8): 3.53 µM (active) | AC50 [9]: 1.07 µM (active)

O=C(N/N=C/c1ccc([N+](=O)[O-])o1)c1sc2ccccc2c1Cl
AC50 [10]: 4.61 µM (active) | AC50 (A-375 [11]): > 11 µM (active) | AC50 (A-375 [12]): > 11 µM (active) | IC50 (cells): 2.18 µM (active) | CC50 [13]: 19.1 µM (active) | AC50 [14]: 4.4 µM (active) | CC50 [15]: > 20 µM (active) | IC50 [16]: > 100 µM (inactive) | IC50 [17]: 7.89 µM (active) | IC50 [18]: > 100 µM (inactive) | CC50 [19]: 20.2 µM (active)

O=C(c1ccc(F)cc1)C(CN1CCOCC1)c1ccccc1 (centres undefined)
AC50 [10]: 5.96 µM (active) | EC50 [20]: 3.36 µM (active) | AC50 (A-375 [11]): > 35 µM (active) | AC50 (A-375 [12]): > 35 µM (active) | AC50 [21]: 19.4 µM (active) | IC50 [22]: 4.17 µM (active) | AC50 [23]: 17.6 µM (active) | EC50 [24]: 10.9 µM (active) | AC50 [25]: 6.91 µM (active) | IC50 [26]: 3.27 µM (active) | EC50 [27]: 4.06 µM (active) | EC50 [28]: 2.42 µM (active)

COc1ccc(CCN2C(=O)c3[nH]nc(-c4ccccc4O)c3C2c2ccccc2)cc1OC (centres undefined)
AC50 [1]: 0.625 µM (active) | EC50 (HEK293 [29]): > 59.7 µM (inactive) | AC50 [2]: 0.929 µM (active) | AC50 [30]: 52.7 µM (active) | EC50 (HEK293 [31]): > 59.7 µM (inactive) | AC50 [8]: 0.621 µM (active) | AC50 [9]: 0.376 µM (active)

Cc1cc(Br)ccc1OCC(=O)NNC(=O)C(=O)Nc1ccccc1
EC50 [32]: > 150 µM (inactive) | IC50 (cells): 12.2 µM (active) | EC50 [33]: 0.526 µM (active) | EC50 [34]: > 180 µM (inactive) | EC50 [35]: > 150 µM (inactive)

COc1ccc(OC)c(-c2cc(C(=O)Nc3c(C)nn(Cc4ccccc4)c3C)no2)c1
EC50 (HEK293 [29]): > 59.6 µM (inactive) | EC50 (HEK293 [31]): > 59.6 µM (inactive)

Cc1ccc(-c2nc(C#N)c(NCc3ccco3)o2)cc1
AC50 (A-375 [11]): > 35 µM (active) | AC50 (A-375 [12]): > 35 µM (active)

CCCCn1c(SCc2ccc(Cl)cc2)nc2c1c(=O)[nH]c(=O)n2C
EC50 (HEK293 [29]): > 59.6 µM (inactive) | EC50 [36]: 15.8 µM (active) | EC50 [37]: 17 µM (active) | EC50 [38]: 16.2 µM (active) | EC50 (HEK293 [31]): > 59.6 µM (inactive)

CCOC(=O)[C@@H](C)N(Cc1ccc(OC)cc1)S(=O)(=O)N(Cc1ccccc1)[C@H](C(=O)OC)C(C)C
EC50 (HEK293 [29]): > 59.7 µM (inactive) | EC50 (HEK293 [31]): > 59.7 µM (inactive)

CCOc1ccc(-c2ccc(NS(=O)(=O)c3ccc([N+](=O)[O-])cc3)cc2)nn1
EC50 [32]: 50.7 µM (active) | EC50 [33]: 2.36 µM (active) | EC50 [34]: > 180 µM (inactive) | EC50 [35]: > 150 µM (inactive)

CC1CCN(Cc2nc(-c3ccc(Cl)cc3)no2)CC1
AC50 [10]: 7.62 µM (active) | AC50 (A-375 [11]): > 35 µM (active) | AC50 (A-375 [12]): > 35 µM (active)
